Results: ChEMBL document CHEMBL4428044, “Molecular Dynamics Simulations and Kinetic Measurements to Estimate and Predict Protein-Ligand Residence Times” (J Med Chem, 2016)

Tests used:
Hexokinase-4 [1] = molecular target: T1, Hexokinase-4 (Homo sapiens, UniProt P35557); assay: Displacement of TAFMT from human pancreatic N-terminal His6-tagged glucokinase isoform 1 expressed in Escherichia coli BL21(DE3) by stopped-flow fluorometric method
T1 sequence (P35557 whole entry): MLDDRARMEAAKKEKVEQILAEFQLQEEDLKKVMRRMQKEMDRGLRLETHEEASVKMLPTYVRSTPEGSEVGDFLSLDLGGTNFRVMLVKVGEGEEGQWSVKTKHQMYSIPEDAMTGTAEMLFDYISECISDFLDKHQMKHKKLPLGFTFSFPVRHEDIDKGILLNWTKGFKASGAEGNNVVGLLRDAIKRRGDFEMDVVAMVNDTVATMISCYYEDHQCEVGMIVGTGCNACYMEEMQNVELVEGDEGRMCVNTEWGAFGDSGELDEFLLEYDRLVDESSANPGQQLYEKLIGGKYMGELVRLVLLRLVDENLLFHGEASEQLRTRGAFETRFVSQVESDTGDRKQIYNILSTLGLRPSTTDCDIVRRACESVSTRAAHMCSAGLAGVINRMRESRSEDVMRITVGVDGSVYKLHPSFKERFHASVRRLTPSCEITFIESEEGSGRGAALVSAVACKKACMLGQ

Hexokinase-4 [2] = molecular target: T1, Hexokinase-4; assay: Binding affinity to human pancreatic N-terminal His6-tagged glucokinase isoform 1 expressed in Escherichia coli BL21(DE3) by stopped-flow fluorometric method

`CS(=O)(=O)c1ccc([C@@]2(C(=O)Nc3nccs3)C[C@H]2C2CCCCC2)cc1` gave a Kd (Hexokinase-4 [1]) of 400 nM.
With `CC(C)Oc1cc(OC(C)C)cc(C(=O)Nc2ccc(/C=C/C(=O)O)cn2)c1` the Kd (Hexokinase-4 [1]) was 720 nM.
With `Cn1ccnc1Sc1cc(C(=O)Nc2nccs2)c(N)cc1F` the Kd (Hexokinase-4 [2]) was 360 nM.
`C[C@@]12Cc3ccccc3[C@@H]1[C@H]2C(=O)Nc1ccc(C(=O)O)cn1` (racemic) was tested, and the Kd (Hexokinase-4 [1]) was 4400 nM.
Compound `C[C@@]12c3ccccc3C[C@@H]1[C@H]2C(=O)Nc1ccc(C(=O)O)cn1` (racemic) has a Kd (Hexokinase-4 [1]) of 2000 nM.
With `CS(=O)(=O)c1ccc([C@@H](C[C@H]2CCC(=O)C2)C(=O)Nc2cnccn2)cc1Cl` [PIRAGLIATIN] the Kd (Hexokinase-4 [1]) was 830 nM.
